Measurements from ChEMBL document CHEMBL3217415, “(Pd/C-mediated)couplingiodocyclizationcoupling strategy in discovery of novel PDE4 inhibitors: a new synthesis of pyrazolopyrimidines” (Medchemcomm, 2012).
The source made the active and inactive calls. The calls are words filed in the database; no cut-off is given here.

Key:
[1] = biological target: T1, 3',5'-cyclic-AMP phosphodiesterase 4B (Homo sapiens, UniProt Q07343); assay: Inhibition of His-tagged recombinant human PDE4B expressed in baculovirus infected sf9 cells using cAMP as substrate at 30 uM preincubated for 15 mins followed by substrate addition measured after 1 hr by luminescence assay
T1 sequence (Q07343 whole entry): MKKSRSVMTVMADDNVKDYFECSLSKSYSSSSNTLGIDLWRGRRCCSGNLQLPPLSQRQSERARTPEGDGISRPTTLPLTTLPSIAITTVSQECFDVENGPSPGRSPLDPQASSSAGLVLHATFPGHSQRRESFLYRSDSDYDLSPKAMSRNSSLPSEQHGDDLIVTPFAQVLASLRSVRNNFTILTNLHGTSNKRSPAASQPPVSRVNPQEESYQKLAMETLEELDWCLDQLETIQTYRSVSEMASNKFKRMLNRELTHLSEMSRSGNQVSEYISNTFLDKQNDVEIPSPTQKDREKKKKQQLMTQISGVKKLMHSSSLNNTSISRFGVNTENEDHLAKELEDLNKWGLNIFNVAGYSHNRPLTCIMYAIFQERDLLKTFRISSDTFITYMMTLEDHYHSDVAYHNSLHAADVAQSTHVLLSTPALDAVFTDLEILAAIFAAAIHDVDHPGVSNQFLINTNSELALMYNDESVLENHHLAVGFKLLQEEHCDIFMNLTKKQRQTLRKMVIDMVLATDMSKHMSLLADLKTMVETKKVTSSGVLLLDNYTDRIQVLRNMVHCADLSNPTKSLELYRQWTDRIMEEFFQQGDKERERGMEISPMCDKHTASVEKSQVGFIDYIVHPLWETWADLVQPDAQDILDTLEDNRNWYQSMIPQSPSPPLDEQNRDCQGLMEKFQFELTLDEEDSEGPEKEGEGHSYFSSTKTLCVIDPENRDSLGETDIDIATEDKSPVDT

RAW264.7 = assay: Inhibition of LPS-induced TNFalpha production in mouse RAW264.7 cells pretreated for 30 mins before LPS challenge by ELISA assay; format: functional, cell-based
Danio rerio [2] = species on record: Danio rerio; assay: Toxicity in zebrafish embryo assessed as mortality at 10 to 20 uM after 1 to 24 hrs; format: organism-based; settings: in vivo
Danio rerio [3] = species on record: Danio rerio; assay: Toxicity in zebrafish embryo assessed as lordosis at 10 to 20 uM after 1 to 24 hrs; format: organism-based; settings: in vivo
Danio rerio [4] = species on record: Danio rerio; assay: Toxicity in zebrafish embryo assessed as effect on locomotory activity at 10 to 20 uM after 1 to 24 hrs; format: organism-based; settings: in vivo
Danio rerio [5] = species on record: Danio rerio; assay: Toxicity in zebrafish embryo assessed as cardiac arrhythmia at 10 to 20 uM after 24 hrs by compound microscopy; format: organism-based, Heart; settings: in vivo
Danio rerio [6] = species on record: Danio rerio; assay: Toxicity in zebrafish embryo assessed as increase in abnormal lesions at 10 to 20 uM after 24 hrs; format: organism-based; settings: in vivo
Danio rerio [7] = species on record: Danio rerio; assay: Toxicity in zebrafish embryo assessed as mortality at 100 uM after 1 to 24 hrs; format: organism-based; settings: in vivo
Danio rerio [8] = species on record: Danio rerio; assay: Toxicity in zebrafish embryo assessed as effect on locomotory activity at 100 uM; format: organism-based; settings: in vivo
[9] = biological target: T1, 3',5'-cyclic-AMP phosphodiesterase 4B; assay: Inhibition of His-tagged recombinant human PDE4B1 expressed in baculovirus infected sf9 cells using cAMP as substrate preincubated for 15 mins followed by substrate addition measured after 1 hr by luminescence assay
[10] = biological target: T2, 3',5'-cyclic-AMP phosphodiesterase 4D (Homo sapiens, UniProt Q08499); assay: Inhibition of human PDE4D2 using cAMP substrate preincubated for 15 mins followed by substrate addition measured after 1 hr by luminescence assay
T2 sequence (Q08499 whole entry): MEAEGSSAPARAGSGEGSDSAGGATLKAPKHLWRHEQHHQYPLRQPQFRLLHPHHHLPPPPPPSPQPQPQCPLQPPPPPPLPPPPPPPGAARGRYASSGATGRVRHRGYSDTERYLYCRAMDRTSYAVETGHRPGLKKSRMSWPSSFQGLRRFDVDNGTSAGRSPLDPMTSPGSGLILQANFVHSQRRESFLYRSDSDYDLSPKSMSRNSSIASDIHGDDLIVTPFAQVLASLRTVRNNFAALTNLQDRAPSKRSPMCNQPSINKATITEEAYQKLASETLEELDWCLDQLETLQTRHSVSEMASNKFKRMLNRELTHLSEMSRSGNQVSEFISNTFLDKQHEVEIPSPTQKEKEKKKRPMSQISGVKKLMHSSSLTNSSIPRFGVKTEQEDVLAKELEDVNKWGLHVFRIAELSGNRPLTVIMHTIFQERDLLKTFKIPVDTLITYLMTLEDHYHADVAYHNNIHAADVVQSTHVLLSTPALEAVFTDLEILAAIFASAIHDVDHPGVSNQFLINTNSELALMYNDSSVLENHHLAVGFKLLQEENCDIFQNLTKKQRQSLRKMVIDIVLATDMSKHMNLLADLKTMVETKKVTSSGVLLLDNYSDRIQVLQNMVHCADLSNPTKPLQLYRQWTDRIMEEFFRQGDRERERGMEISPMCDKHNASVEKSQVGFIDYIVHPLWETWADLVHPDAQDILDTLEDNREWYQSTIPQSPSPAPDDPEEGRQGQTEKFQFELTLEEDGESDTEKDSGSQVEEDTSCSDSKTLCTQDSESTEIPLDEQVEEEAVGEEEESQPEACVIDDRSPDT

[11] = biological target: 3',5'-cyclic-AMP phosphodiesterase 4A (Homo sapiens, UniProt P27815); assay: Inhibition of PDE4A4 (unknown origin) transfected in HEK293 cells assessed as forskolin-induced cAMP accumulation pretreated for 30 mins before forskolin challenge by luciferase reporter gene assay; format: cell-based
Chain of 3',5'-cyclic-AMP phosphodiesterase 4A (P27815 whole entry): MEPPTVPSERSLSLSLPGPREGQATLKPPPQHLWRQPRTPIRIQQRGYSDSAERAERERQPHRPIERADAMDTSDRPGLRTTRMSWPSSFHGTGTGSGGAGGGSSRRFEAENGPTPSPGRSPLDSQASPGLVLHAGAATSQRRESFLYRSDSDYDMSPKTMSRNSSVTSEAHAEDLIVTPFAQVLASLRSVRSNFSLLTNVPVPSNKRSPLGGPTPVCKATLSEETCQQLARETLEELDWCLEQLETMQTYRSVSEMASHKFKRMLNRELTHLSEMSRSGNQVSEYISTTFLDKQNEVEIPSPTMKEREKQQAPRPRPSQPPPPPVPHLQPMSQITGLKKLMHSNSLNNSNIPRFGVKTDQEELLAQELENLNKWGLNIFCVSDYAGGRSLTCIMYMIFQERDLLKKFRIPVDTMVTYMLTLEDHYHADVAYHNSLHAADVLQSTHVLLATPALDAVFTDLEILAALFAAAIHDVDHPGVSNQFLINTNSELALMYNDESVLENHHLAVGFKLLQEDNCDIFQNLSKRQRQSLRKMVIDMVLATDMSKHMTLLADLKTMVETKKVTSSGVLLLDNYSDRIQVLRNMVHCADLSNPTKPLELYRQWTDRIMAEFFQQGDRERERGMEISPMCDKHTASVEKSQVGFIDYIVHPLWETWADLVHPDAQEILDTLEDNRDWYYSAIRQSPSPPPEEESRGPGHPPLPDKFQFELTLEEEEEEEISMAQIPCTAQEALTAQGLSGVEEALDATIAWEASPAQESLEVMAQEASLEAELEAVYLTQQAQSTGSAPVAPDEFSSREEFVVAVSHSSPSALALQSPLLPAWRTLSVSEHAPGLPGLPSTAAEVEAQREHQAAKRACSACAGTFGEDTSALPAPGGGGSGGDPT

[12] = biological target: T1, 3',5'-cyclic-AMP phosphodiesterase 4B; assay: Inhibition of PDE4B1 (unknown origin) transfected in HEK293 cells assessed as forskolin-induced cAMP accumulation pretreated for 30 mins before forskolin challenge by luciferase reporter gene assay; format: cell-based
[13] = biological target: T2, 3',5'-cyclic-AMP phosphodiesterase 4D; assay: Inhibition of PDE4D3 (unknown origin) transfected in HEK293 cells assessed as forskolin-induced cAMP accumulation pretreated for 30 mins before forskolin challenge by luciferase reporter gene assay; format: cell-based
Danio rerio [14] = species on record: Danio rerio; assay: Toxicity in zebrafish embryo assessed as effect on locomotory activity at 10 uM after 6 hrs; format: organism-based; settings: in vivo
Danio rerio [15] = species on record: Danio rerio; assay: Toxicity in zebrafish embryo assessed as effect on locomotory activity at 20 uM after 24 hrs; format: organism-based; settings: in vivo

In the case of `CCCCCCc1oc(=O)c2c(nn3c(-c4ccccc4)ccnc23)c1/C=C/C(=O)OC(C)(C)C`, the inhibition [1] is reported as “inactive”.

`O=c1oc(-c2ccccc2)c(-c2cnc3ccccc3c2)c2nn3c(-c4ccccc4)ccnc3c12` gave an inhibition [1] of 74%.

`CCCCCC#Cc1c(-c2ccccc2)oc(=O)c2c1nn1c(-c3ccccc3)ccnc21` gave an inhibition [1] of 50%.

For `O=c1oc(-c2ccccc2)c(-c2ccc(F)cc2)c2nn3c(-c4ccccc4)ccnc3c12`, the inhibition [1] was 66%.

`O=c1oc(-c2ccccc2)c(-c2cccc([N+](=O)[O-])c2)c2nn3c(-c4ccccc4)ccnc3c12` showed an inhibition [1] of 74%.

With `CCCCCC#Cc1c(CCCCCC)oc(=O)c2c1nn1c(-c3ccccc3)ccnc21` the inhibition [1] was 50%.

`CCCCCCc1oc(=O)c2c(nn3c(-c4ccccc4)ccnc23)c1-c1cccc(C(N)=O)c1` showed an inhibition [1] of 85%.

With `CCCCCCc1oc(=O)c2c(nn3c(-c4ccccc4)ccnc23)c1/C=C/C(=O)OCC` the inhibition [1] was “inactive”.

For `COc1ccc(C2CNC(=O)C2)cc1OC1CCCC1` (stereo not drawn) [ROLIPRAM], the IC50 (RAW264.7) was 0.19 µM, the Activity (Danio rerio [2]) was “Toxic” and the Activity (Danio rerio [3]) was “Toxic”. For the same molecule, the Activity (Danio rerio [4]) was “Toxic”, the Activity (Danio rerio [5]) was “Non-toxic” and the Activity (Danio rerio [6]) was “Toxic”.

`CC(C)(C)c1ccc(C(O)CCCN2CCC(C(O)(c3ccccc3)c3ccccc3)CC2)cc1` (stereo not drawn) [TERFENADINE] was tested, and the Activity (Danio rerio [7]) was “Toxic” and the Activity (Danio rerio [8]) was “Toxic”.

Work on `NC(=O)c1cccc(-c2c(-c3ccccc3)oc(=O)c3c2nn2c(-c4ccccc4)ccnc32)c1` yielded an inhibition [1] of 93%, an IC50 [9] of 1.33 µM and an IC50 [10] of 2.84 µM. For the same molecule, the EC50 [11] was 11.7 µM, the EC50 [12] was 6.32 µM and the EC50 [13] was 9.62 µM. For the same molecule, the IC50 (RAW264.7) was 0.45 µM, the Activity (Danio rerio [2]) was “Non-toxic” and the Activity (Danio rerio [14]) was “Toxic”. For the same molecule, the Activity (Danio rerio [5]) was “Non-toxic”, the Activity (Danio rerio [6]) was “Non-toxic” and the Activity (Danio rerio [15]) was “Non-toxic”.
